Experimental data from patent US11198710B2, “Transgenic plant having herbicide resistance” (priority 2016, dated 2021).

Experiments:
cultured rice cells = details: culture in a pyroxasulfone-containing liquid medium; cited from earlier work
wild-type rice = assay: Pyroxasulfone resistance test, wild-type rice, gellan gum medium, plant height; format: in vivo; details: Oryza sativa, shoot growth, 4 to 5 days, Probit method, read-out: I50
Protocol: Hoagland's mix and 3 g of gellan gum were suspended in 1 liter of distilled water and thoroughly dissolved therein by heating in a microwave. A fraction of the resultant (15 ml) was injected into a tubular bottle before it was cooled (30 ml was injected into the plate). The herbicide was simultaneously added at the time of injection of the gellan gum medium into the tubular bottle or plate, followed by thorough mixing. Rice hulls were soaked in a 50-fold diluted sodium hypochlorite solution (antiformin) (Wako) for approximately 20 minutes and then thoroughly washed with water. Sterilized seeds were soaked in distilled water and allowed to stand at 27° C. for germination (for approximately 2 days). Germinating seeds were softly planted in the gellan gum medium (plate) containing 0.25 μM BS. […] Thereafter, rice seeds that were determined to have BS resistance with the use of root elongation as the indicator were transferred to gellan gum media containing pyroxasulfone (tubal bottles) at the final concentrations of 10^−8, 10^−7, 10^−6, and 10^−5M, respectively. […] These samples were grown at 27° C. under fluorescent light illumination (14 hours of a light period and 10 hours of a dark period) for 4 to 5 days, and the plant heights were then measured. […]

[1] = tested on: transgenic rapeseed plants comprising the TaQ8GTC0 gene; assay: Rapeseed sensitivity test 1 (post-sowing/pre-emergence soil treatment), transgenic; format: in vivo, Brassica napus
Protocol: Wild-type rapeseed plants (variety: Westar) and transgenic rapeseed plants comprising the wheat GST gene introduced therein were subjected to Rapeseed sensitivity test 1 in plastic pots (length: 8 cm; width: 8 cm; height: 6 cm). The test was carried out in Fujino soil (sandy loam soil), and 4 seeds of wild-type rapeseed and 8 seeds of transgenic rapeseed were sown in each pot (sowing depth: 1 cm). Water dispersible granules containing 50% pyroxasulfone were applied at 5 different doses of 1, 4, 16, 63, and 250 g a.i./ha (n=3). Immediately after pyroxasulfone treatment, about 1 mm of rain was fallen with the use of artificial rainfall device, and water was supplied from the bottom of the pots. Thereafter, water was supplied from the bottom of the pot when the soil surface was dried in the pot, according to need.
The difference in the sensitivity of rapeseed to pyroxasulfone applied pre-emergence was examined (temperature: 22° C., fluorescent light), and whether or not the transgenic rapeseed plant comprising wheat GST had pyroxasulfone resistance was evaluated in terms of the plant height, the herbicidal symptoms, and the cotyledon growth. Specifically, heights of the plants were measured 2 weeks after seeds sowing of rapeseed and pyroxasulfone application, and the inhibition was assessed by comparison to control plants grown in the absence of pyroxauslfone (n=4 to 12). In FIGS. 37 to 39, “TaGST” stands for a transgenic rapeseed plant comprising the TaQ8GTC0 gene. Values in the table in FIG. 38 are expressed as the mean±standard deviation (n=4 to 12).

TaQ8GTC1-R protein = assay: Glutathione conjugation activity of the TaQ8GTC1-R protein to pyroxasulfone (HPLC); format: biochemical, wheat; details: 30° C., 1 hour
Protocol: The glutathione conjugation activity to pyroxasulfone was measured in a reaction mixture (200 μl in total) containing 50 μl of 100 mM potassium phosphate buffer (pH 6.8), 10 μl of 1 mM pyroxasulfone (acetone solution), 20 μl of 10 mM reduced glutathione (pH 7.0), and 120 μl of the TaQ8GTC1-R protein (PBS solution containing 20% glycerol), the reaction was conducted at 30° C. for 1 hour, the reaction product was filtered through a 0.2-μm filter, and 50 μl of the resulting solution was injected into HPLC. A reaction mixture (prepared with the addition of PBS containing 20% glycerol instead of the TaQ8GTC1-R protein) and another reaction mixture (prepared with the addition of PBS containing 20% glycerol and sterile water instead of the TaQ8GTC1-R protein and glutathione, respectively) were prepared as control reaction mixture. […]
Subsequently, the glutathione conjugation activity of the TaQ8GTC1-R protein to pyroxasulfone was examined. […] The amount of the protein added to the enzyme reaction mixture was determined to be 500 ng since about 50% of a total of 10 nmol of the added herbicides was converted into glutathione conjugates when the enzyme activity of the about 400 ng of TaQ8GTC0 (see Example 1) was inspected under the same conditions.

## Cn1nc(C(F)(F)F)c(CS(=O)(=O)C2=NOC(C)(C)C2)c1OC(F)F [Pyroxasulfone, 3-[5-(difluoromethoxy)-1-methyl-3-(trifluoromethyl)pyrazol-4-ylmethylsulfonyl]-4,5-dihydro-5,5-dimethyl-1,2-oxazole]
Cultured rice cells
  C15:0 (pentadecanoic acid) content: remarkably increased
  content of very-long-chain fatty acid (VLCFA): drastically decreases
wild-type rice
  IC50: 39 nM
[1]; 250 g a.i./ha
  cotyledon growth: grew to a certain extent
[1]; Brassica napus, 336 h, 16 g a.i./ha, 2 weeks after sowing and application, 22° C., read-out: shoot growth inhibition (plant height)
  inhibition at 16 g/ha: 48.2%
[1]; pre-emergence soil treatment, doses up to 250 g a.i./ha
  herbicidal symptoms (cotyledons dark green): not detected
TaQ8GTC1-R protein; 500 ng TaQ8GTC1-R protein
  glutathione conjugation activity to pyroxasulfone: did not possess glutathione conjugation activity
TaQ8GTC1-R protein; equivalent in enzyme reaction mixture (500 ng protein) and reaction mixture without enzyme
  pyroxasulfone added to the reaction mixture converted into M-15: about 3%
